From PubChem BioAssay (NCI)
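Where inhibition never reached the appropriate level, the endpoint shown equals the highest concentration tested. Otherwise, values were interpolated linearly from a five-concentration, 48-hour dose response in 96-well plates. Definition used: TGI = concentration required for complete inhibition of growth.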

What was measured:
Experiment in all cases: NCI-60 cell line screen, 48 h
786-0 renal = system: 786-0 renal
A498 renal = system: A498 renal
A549 NSCLC = system: A549 NSCLC
ACHN renal = system: ACHN renal
BT-549 breast = system: BT-549 breast
CAKI-1 renal = system: CAKI-1 renal
CCRF-CEM leukemia = system: CCRF-CEM leukemia
COLO 205 colon = system: COLO 205 colon
DU-145 prostate = system: DU-145 prostate
EKVX NSCLC = system: EKVX NSCLC
HCC-2998 colon = system: HCC-2998 colon
HCT-116 colon = system: HCT-116 colon
HCT-15 colon = system: HCT-15 colon
HL-60(TB) leukemia = system: HL-60(TB) leukemia
HOP-62 NSCLC = system: HOP-62 NSCLC
HOP-92 NSCLC = system: HOP-92 NSCLC
HS 578T breast = system: HS 578T breast
IGROV1 ovarian = system: IGROV1 ovarian
K-562 leukemia = system: K-562 leukemia
KM12 colon = system: KM12 colon
M14 melanoma = system: M14 melanoma
MALME-3M melanoma = system: MALME-3M melanoma
MCF7 breast = system: MCF7 breast
MDA-MB-231 breast = system: MDA-MB-231 breast
MDA-MB-435 = system: MDA-MB-435
MDA-N = system: MDA-N
MOLT-4 leukemia = system: MOLT-4 leukemia
NCI-H226 lung = system: NCI-H226 lung
NCI-H23 lung = system: NCI-H23 lung
NCI-H460 lung = system: NCI-H460 lung
NCI-H522 lung = system: NCI-H522 lung
NCI/ADR-RES ovarian = system: NCI/ADR-RES ovarian
OVCAR-3 ovarian = system: OVCAR-3 ovarian
OVCAR-4 ovarian = system: OVCAR-4 ovarian
OVCAR-5 ovarian = system: OVCAR-5 ovarian
OVCAR-8 ovarian = system: OVCAR-8 ovarian
PC-3 prostate = system: PC-3 prostate
RXF 393 renal = system: RXF 393 renal
SF-268 CNS = system: SF-268 CNS
SF-295 CNS = system: SF-295 CNS
SF-539 CNS = system: SF-539 CNS
SK-MEL-2 melanoma = system: SK-MEL-2 melanoma
SK-MEL-28 melanoma = system: SK-MEL-28 melanoma
SK-MEL-5 melanoma = system: SK-MEL-5 melanoma
SK-OV-3 ovarian = system: SK-OV-3 ovarian
SN12C renal = system: SN12C renal
SNB-19 CNS = system: SNB-19 CNS
SNB-75 CNS = system: SNB-75 CNS
SR leukemia = system: SR leukemia
SW-620 colon = system: SW-620 colon
T-47D breast = system: T-47D breast
TK-10 renal = system: TK-10 renal
U251 CNS = system: U251 CNS
UACC-257 melanoma = system: UACC-257 melanoma
UACC-62 melanoma = system: UACC-62 melanoma
UO-31 renal = system: UO-31 renal
HT29 colon = system: HT29 colon
RPMI-8226 leukemia = system: RPMI-8226 leukemia

For `Cc1ccc(N=Nc2c(O)ccc3cc(S(=O)(=O)O)cc(S(=O)(=O)O)c23)cc1`, the TGI (786-0 renal) was > 100 µM, the TGI (A498 renal) was > 100 µM and the TGI (A549 NSCLC) was > 100 µM. For the same molecule, the TGI (ACHN renal) was > 100 µM, the TGI (BT-549 breast) was > 100 µM and the TGI (CAKI-1 renal) was > 100 µM. The TGI (CCRF-CEM leukemia) was > 100 µM, the TGI (COLO 205 colon) was > 100 µM and the TGI (DU-145 prostate) was > 100 µM. For the same molecule, the TGI (EKVX NSCLC) was > 100 µM, the TGI (HCC-2998 colon) was > 100 µM and the TGI (HCT-116 colon) was > 100 µM. The TGI (HCT-15 colon) was > 100 µM, the TGI (HL-60(TB) leukemia) was > 100 µM and the TGI (HOP-62 NSCLC) was > 100 µM. The TGI (HOP-92 NSCLC) was > 100 µM, the TGI (HS 578T breast) was > 100 µM and the TGI (IGROV1 ovarian) was > 100 µM. The TGI (K-562 leukemia) was > 100 µM, the TGI (KM12 colon) was > 100 µM and the TGI (M14 melanoma) was > 100 µM. The TGI (MALME-3M melanoma) was > 100 µM, the TGI (MCF7 breast) was > 100 µM and the TGI (MDA-MB-231 breast) was > 100 µM. The TGI (MDA-MB-435) was > 100 µM, the TGI (MDA-N) was > 100 µM and the TGI (MOLT-4 leukemia) was > 100 µM. The TGI (NCI-H226 lung) was > 100 µM, the TGI (NCI-H23 lung) was > 100 µM and the TGI (NCI-H460 lung) was > 100 µM. The TGI (NCI-H522 lung) was > 100 µM, the TGI (NCI/ADR-RES ovarian) was > 100 µM and the TGI (OVCAR-3 ovarian) was > 100 µM. For the same molecule, the TGI (OVCAR-4 ovarian) was > 100 µM, the TGI (OVCAR-5 ovarian) was > 100 µM and the TGI (OVCAR-8 ovarian) was > 100 µM. The TGI (PC-3 prostate) was > 100 µM, the TGI (RXF 393 renal) was > 100 µM and the TGI (SF-268 CNS) was > 100 µM. The TGI (SF-295 CNS) was > 100 µM, the TGI (SF-539 CNS) was > 100 µM and the TGI (SK-MEL-2 melanoma) was > 100 µM. For the same molecule, the TGI (SK-MEL-28 melanoma) was > 100 µM, the TGI (SK-MEL-5 melanoma) was > 100 µM and the TGI (SK-OV-3 ovarian) was > 100 µM. The TGI (SN12C renal) was > 100 µM, the TGI (SNB-19 CNS) was > 100 µM and the TGI (SNB-75 CNS) was > 100 µM. For the same molecule, the TGI (SR leukemia) was > 100 µM, the TGI (SW-620 colon) was > 100 µM and the TGI (T-47D breast) was > 100 µM. For the same molecule, the TGI (TK-10 renal) was > 100 µM, the TGI (U251 CNS) was > 100 µM and the TGI (UACC-257 melanoma) was > 100 µM. The TGI (UACC-62 melanoma) was > 100 µM and the TGI (UO-31 renal) was > 100 µM.
`O=C(O)c1ccc([N+](=O)[O-])c2cc3cnccc3nc12` was tested, and the TGI (A498 renal) was > 100 µM, the TGI (BT-549 breast) was 33.5 µM and the TGI (CCRF-CEM leukemia) was 9.03 µM. For the same molecule, the TGI (COLO 205 colon) was 40.4 µM, the TGI (DU-145 prostate) was > 100 µM and the TGI (HCC-2998 colon) was 50.3 µM. For the same molecule, the TGI (HCT-116 colon) was 33 µM, the TGI (HCT-15 colon) was 45 µM and the TGI (HL-60(TB) leukemia) was > 100 µM. The TGI (HOP-62 NSCLC) was > 100 µM, the TGI (HOP-92 NSCLC) was 45.8 µM and the TGI (HS 578T breast) was 65.6 µM. The TGI (HT29 colon) was 57.3 µM, the TGI (IGROV1 ovarian) was > 100 µM and the TGI (K-562 leukemia) was 36.5 µM. For the same molecule, the TGI (KM12 colon) was 44.4 µM, the TGI (M14 melanoma) was 37.2 µM and the TGI (MALME-3M melanoma) was 42.2 µM. For the same molecule, the TGI (MCF7 breast) was 38.7 µM, the TGI (MDA-MB-231 breast) was 36.2 µM and the TGI (MDA-MB-435) was > 100 µM. For the same molecule, the TGI (MDA-N) was 51.3 µM, the TGI (MOLT-4 leukemia) was 29.7 µM and the TGI (NCI-H226 lung) was 61.6 µM. The TGI (NCI-H23 lung) was 62.9 µM, the TGI (NCI-H460 lung) was > 100 µM and the TGI (NCI-H522 lung) was 32.4 µM. It also gave a TGI (NCI/ADR-RES ovarian) of 80.9 µM, a TGI (OVCAR-3 ovarian) of 36.4 µM and a TGI (OVCAR-5 ovarian) of 76.9 µM. For the same molecule, the TGI (OVCAR-8 ovarian) was 48.9 µM, the TGI (PC-3 prostate) was 34.6 µM and the TGI (RPMI-8226 leukemia) was > 100 µM. For the same molecule, the TGI (RXF 393 renal) was 74.1 µM, the TGI (SF-295 CNS) was > 100 µM and the TGI (SK-MEL-2 melanoma) was 38.9 µM. The TGI (SK-MEL-28 melanoma) was 34.8 µM, the TGI (SK-MEL-5 melanoma) was 38.4 µM and the TGI (SK-OV-3 ovarian) was > 100 µM. For the same molecule, the TGI (SN12C renal) was 32.8 µM, the TGI (SNB-75 CNS) was 34.2 µM and the TGI (SR leukemia) was > 100 µM. For the same molecule, the TGI (T-47D breast) was 58.6 µM, the TGI (U251 CNS) was 35.6 µM and the TGI (UACC-62 melanoma) was 24.8 µM. It also gave a TGI (UO-31 renal) of 43.7 µM.
